Consider 1 molecule from PMC5409245, “An albumin-based tumor-targeted oxaliplatin prodrug with distinctly improved anticancer activity in vivo” (Chemical Science, 2016).

This data set is described as follows: Serum platinum levels 24 h after single treatment (SEC-ICP-MS and FI-ICP-MS). Type of data set: in vivo, BALB/c mice. The text has this: It is well accepted that albumin targeting distinctly impacts on the plasma half-life time as well as tissue distribution.[36] Especially, the enhanced accumulation due to the EPR effect makes this form of tumor-targeting very interesting for the development of novel cancer therapeutics.[13] As our novel compounds have a double prodrug nature (albumin-binding and the need of activation by reduction), we were interested in the drug tissue distribution after treatment. To this end, male CT-26-bearing BALB/c mice were treated once with our compounds followed by sample collection 24 h later. […] In accordance to many other non-targeted drugs,[37]–[40] for both platinum(II) drugs the intratumoral drug levels were distinctly lower than in the liver and kidney (which usually have very high drug levels due to their important function in metabolism and excretion).
Mice were treated once i.v. with 9 mg kg^–1 oxaliplatin and the equimolar concentrations in the case of 11 and 12 as well as 3 mg kg^–1 cisplatin and an equimolar dose in the case of 8. After 24 h, animals were anesthetized, sacrificed by heart puncture and tumor, liver, kidney tissue as well as serum were collected. Each experimental group contained four animals. (A) Organ platinum-distribution measured by ICP-MS. Data are expressed as mean ± standard deviation. (B) Platinum-SEC-ICP-MS measurements of serum samples (C) serum platinum levels measured by FI-ICP-MS. Data are expressed as mean ± standard deviation.
Table S10 : Column recovery.
Drug Conc. (µM) SD Column SD
A protein/amino acid mix was prepared to assess the separation performance of the applied SEC-HPLC setup. The mixture contained HSA, myoglobin, GSSG, and methionine. It has to be mentioned that HSA is forming dimers over time. However, the separation of the monomer and the dimer of HSA cannot be resolved with this chromatographic column.
Table S11 : Resulting size ladder.
SEC-ICP-MS measurements of in vivo serum samples
The ICP-QMS iCAP Thermo Scientific (Bremen, Germany) was used. Oxygen (purity 4.5, Linde Gas GmbH, Vienna, Austria) was used as reaction gas. The ICP-MS operation parameters are […]
Table S12 : ICP-MS operation parameters.
Nebulizer gas flow: 1.01 L/min
Aux. gas flow: 0.80 L/min
Plasma gas flow: 14 L/min
Reaction gas (oxygen) flow: 0.370 mL/min
As HPLC system a Thermo Scientific Transcend HPLC system (San Jose, CA, USA) was coupled to the ICP-QMS iCAP Thermo Scientific. Qtegra Intelligent Scientific Data Solution (version 2.4.1800.33) was employed for the data treatment. HPLC chromatographic conditions are […]
Table S13 : Chromatographic conditions.
HPLC column: BioBasic SEC-60 A, 4.6x250 mm, 5µm.
Eluent: 50 mM CH3COONH4, pH = 6.0.
Column Temperature: Room temperature
Autosampler Temperature: 37°C […]

On to `N.N.[Cl][Pt][Cl]` [cisplatin], for which the “Pt conc. in serum” value runs as follows: (Mouse #1, serum 24 h after single i.v. treatment) 48 µg/L; (Mouse #2, serum 24 h after single i.v. treatment) 46 µg/L; (Mouse #3, serum 24 h after single i.v. treatment) 43 µg/L; (Mouse #4, serum 24 h after single i.v. treatment) 44 µg/L.
